Laboratory results from US6723897B2, “Methods for controlling gibberellin levels” (Monsanto Technology, LLC, priority 1998, dated 2004).
“Also recorded” adds a separate entry of the source.

How the values were obtained:
Assay type in all cases: in vivo, Glycine max
[1] = system: constitutively GA-deficient transgenic dwarf soybean line 719; experiment: Experiment I greenhouse test, seed imbibition, GA-deficient soybean; parameters: Observation on Transgenic Line 719: key: −1: treated plants are shorter as compared to untreated plants; 0: treated plants had the same stature as untreated plants; 1: treated plants are slightly elongated as compared to untreated plants; 2: treated plants are moderately elongated as compared to untreated plants; 3: treated plants are highly elongated as compared to untreated plants; 4: treated plants are extremely elongated as compared to untreated plants; details: 0.25 mg/ml; for effect in both the constitutive transgenic dwarf and wild-type soybean lines: imbibition, lines 719 and A3237
Text: Seeds are covered with 0.5″ of vermiculite.

[2] = system: constitutively GA-deficient transgenic dwarf soybean line 719; experiment: Experiment IV field test, seed imbibition, compacted soil; details: for field result on line 719 in words: over the rates tested (0.0025-0.25 mg/ml); for No. of Dwarfs Not Rescued / Total Plants: imbibed 8 hours; for Total Plants: 25 seeds planted; for % of Dwarfs Rescued: relative to 8.5 true dwarfs per plot
Text: The objective of these experiments is to determine if there is a greenhouse to field translation of results with selected GA compounds with respect to rescue of constitutively GA-deficient transgenic dwarf soybeans and elongation of wild-type plants. […] For the first field trial, the solutions previously used for the second greenhouse test, and stored in the freezer, are employed. […] For comparison, freshly prepared solutions of GA3 are also employed. The compounds tested included kaurenoic acid, fresh GA3, stored GA3, GA3-3-acetate, GA5, GA9, and GA12. […] Seeds of line […] are imbibed for 8 hours. Untreated dry seeds served as controls. After imbibition, the remaining solutions are returned to the freezer. Seeds are kept on the benchtop at room temperature overnight. […] Untreated dry seeds served as controls. Following planting line 719, all plots (both […] and line 719) are compacted by driving an all-terrain vehicle over the planted rows twice, and watered. All GA solutions are discarded. The results are shown in Table 15 for constitutively GA-deficient transgenic dwarf line 719 only as insufficient […] germinated to make any useful observations. Observations included number of plants that germinated, number rescued, and visual observations. Two points should be noted concerning the data in Table 15. […] Next, the number of dwarfs not rescued in any treatment is subtracted from 8.5.

wild-type A3237 soybean = experiment: Hilum treatment of soybean seeds, seedling growth and development, wild-type soybean; parameters: key to Emergence timing / Hypocotyl length (6 DAP) / 1st internode length (12 DAP) / 3rd internode length (20 DAP): pos: emergence faster/stem segment longer than controls; 0: emergence timing/stem segment length similar to controls; neg: emergence slower/stem segment shorter than controls; details: for 1st internode length (12 DAP) / Emergence timing / Hypocotyl length (6 DAP): single rate per compound 8.3-16.5 μg/seed
In short: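 GA compounds dissolved in ethanol were applied as 1 μl droplets, each dried before the next, to the hilum of GA-deficient transgenic line 719 (R5) or wild-type soybean seeds; ethanol alone served as control. Emergence was scored over time as cotyledons at or above soil level, with growth measured after prolonged development.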

[3] = system: constitutively GA-deficient transgenic dwarf soybean line 719; experiment: Experiment II second greenhouse test, seed imbibition, GA-deficient soybean; details: seeds imbibed 6 hours
Protocol: (The compounds are tested in Experiment I at only one concentration, i.e., 0.25 mg/ml). Test tubes contained […] of ethanol solution per tube. Final volumes are made up to 30 ml with deionized water. After shaking, the treatment solutions (15 ml each) are transferred to each of two 50 ml test tubes. […] Twenty seeds are used in each treatment. Dry seed, ethanol/water-imbibed seed (1% ethanol in water, v/v), and water-imbibed seeds are included as controls. Seeds are imbibed for 6 hours in the test solutions, then planted in bread pans containing Metromix 350 (The Scotts Company, Marysville, Ohio), and covered with 0.5″ Metro-mix. Covered pans are transferred to the greenhouse and subirrigated. Illumination is at a light intensity of 300-400 μmolm^−2s^−1 photosynthetic photon flux; 16 hours light/8 hours dark. Subsequent waterings are also through sub-irrigation until the test is terminated three weeks later. Observations included the number of dwarf, intermediate, and tall plants; plant height; uniformity of rescue; and any visual effects. Digital photographs are also taken.

[4] = system: constitutively GA-deficient transgenic dwarf soybean line 719; experiment: Fifth and sixth field tests, emergence after seed imbibition; details: for Total Emerged: 50 seeds imbibed 5 hours
Protocol: Fresh stock solutions of compounds are prepared for this test. Kaurenoic acid is tested at 0.025 and 0.25 mg/ml; GA3 is tested at 0.025, 0.25, and 0.5 mg/ml; GA3-3-acetate at 0.025 and 0.25 mg/ml; GA5 at 0.025 and 0.25 mg/ml; GA9 at 0.025 and 0.04 mg/ml; and GA12 at 0.025 and 0.25 mg/ml. Stock solutions are prepared in ethanol in 50 ml plastic centrifuge tubes; deionized water is then added to make up the volumes to 30 ml. The final solutions contained 300 μl ethanol in 30 mls. […] Seeds are imbibed for 6 hours, and planted 1″ deep in a single row in moist to wet soil. They are then covered with dry soil, and the row is compacted twice with an all-terrain vehicle. Untreated dry seeds served as controls. The GA solutions are placed on dry ice until reuse the next day.
The next day, additional seeds of constitutive transgenic dwarf line 719 (50 seeds/treatment) are imbibed in the remaining treatment solutions for 5 hours, and planted in moist soil. The rows are compacted twice.

Row | SMILES | effect in both the constitutive transgenic dwarf and wild-type soybean lines [1] | Observation on Transgenic Line 719 ([1]; seeds imbibed 5 hours) | field result on line 719 in words [2] | No. of Dwarfs Not Rescued ([2]; stored solution 0.0025 mg/ml) | Total Plants ([2]; stored solution 0.0025 mg/ml) | % of Dwarfs Rescued ([2]; stored solution 0.0025 mg/ml) [%] | No. of Dwarfs Not Rescued ([2]; stored solution 0.025 mg/ml) | Total Plants ([2]; stored solution 0.025 mg/ml) | % of Dwarfs Rescued ([2]; stored solution 0.025 mg/ml) [%] | No. of Dwarfs Not Rescued ([2]; stored solution 0.25 mg/ml) | Total Plants ([2]; stored solution 0.25 mg/ml) | % of Dwarfs Rescued ([2]; stored solution 0.25 mg/ml) [%] | 1st internode length (12 DAP) (wild-type A3237 soybean) | Emergence timing (wild-type A3237 soybean) | Hypocotyl length (6 DAP) (wild-type A3237 soybean) | Visual Observations on Transgenic Line 719 ([4]; 0.025 mg/ml) | Total Emerged ([4]; 0.025 mg/ml) | Significant Visual Observations on Line 719 ([3]; 0.0025 mg/ml) | Significant Visual Observations on Line 719 ([3]; 0.025 mg/ml) | Significant Visual Observations on Line 719 ([3]; 0.25 mg/ml) | also measured
1 | C=C1C[C@]23C[C@H]1CC[C@H]2[C@@]12CCC[C@@](C)(C(=O)O1)[C@H]2[C@@H]3C(=O)O [GA9] | excessive elongation | 3 | slight elongation, and no uniformity in height | 7 | 20 | 17.6 | 0 | 22 | 100 | 0 | 17 | 100 | 0 | pos | pos | good emergence with good rescue; also recorded: No dwarfs in plots | 24 | – | – | – | Visual Observations on Transgenic Line 719 ([2]; stored solution 0.25 mg/ml): Slightly elongated plants; Lowest rate where biological activity is observed, 1st internode length (10 DAP) (wild-type A3237 soybean; rate response): 1 μg/seed; Lowest rate where biological activity is observed, emergence timing (wild-type A3237 soybean; rate response): 0.1 μg/seed; Lowest rate where biological activity is observed, hypocotyl length (5 DAP) (wild-type A3237 soybean; rate response): 1 μg/seed; Significant Visual Observations on Line 719 ([3]; 0.00125 mg/ml): Poor rescue; Significant Visual Observations on Line 719 ([3]; 0.0125 mg/ml): Good rescue of dwarfs; Significant Visual Observations on Line 719 ([3]; 0.125 mg/ml): good rescue, with no overelongation; Total Emerged ([4]; 0.04 mg/ml): 11
2 | C=C1C[C@]23C[C@H]1CC[C@H]2[C@]1(C)CCC[C@@](C)(C(=O)O)[C@H]1[C@@H]3C(=O)O [GA12] | rescue (elongated hypocotyls) with very little elongation | 1 | good emergence | 5 | 20 | 41.2 | 4 | 22 | 52.9 | 0 | 20 | 100 | 0 | neg | neg | – | 28 | Poor rescue | Incomplete rescue | good rescue, with no overelongation | Total Emerged ([4]; 0.25 mg/ml): 9
3 | C=C1C[C@@]23CC[C@H]4[C@@](C)(CCC[C@@]4(C)C(=O)O)[C@@H]2CC[C@@H]1C3 [kaurenoic acid] | rescue (elongated hypocotyls) with very little elongation | 1 | poor uniformity in plant height | 5 | 23 | 41.2 | 4 | 17 | 52.9 | 6 | 22 | 29.4 | 0 | 0 | 0 | Poor rescue | 20 | Poor rescue | Poor rescue | Poor rescue | Observation on Transgenic Line 719, remark in words ([1]; seeds imbibed 5 hours): some rescue; Visual Observations on Transgenic Line 719 ([4]; 0.25 mg/ml): Poor stand; Total Emerged ([4]; 0.25 mg/ml): 10
